In brackets after ≈: the same amount, converted by molar mass. Like-named read-outs stand apart in the source and are kept apart here. Ends that are not written are not given here. A value given as a limit tells only on which side of the number the result lay.

In one series the test system is L. lactis MG1363. Description: Agar well diffusion assay of cesin analogs. The conditions noted are these: for antimicrobial activity compared to cesin: L. lactis MG1363, 30°C overnight, triplicate, Fig. 5B, 6B, S1. The class given is cell-based, Lactococcus lactis. On the procedure: (§1) An overnight culture of test strains was added at 0.1% (vol/vol) into melted GM17 agar at 45°C and poured in plates. After agar solidification, wells of 8 mm were bored and filled with 30 µL of the lantibiotic solution. When necessary, the lantibiotic was activated with 5 µL of nisP added directly into the well. Peptides were resuspended in 0.05% aqueous acetic acid solution and the cesin amount was determined using the NanoDrop (Thermo Scientific) calibrated with the extinction coefficient predicted by ExPASy (http://web.expasy.org/protparam/). The agar plates were incubated at 30°C overnight, after which, the zones of inhibition were measured. Zone diameters were measured in millimeters and recorded as area of the zone (πr^2) minus the area of the well (πr^2) in millimeters. Where necessary, cesin was compared with nisin and nisin(1–22). Assays were performed in triplicate.
For orientation: A growth-free zone around the sample is the usual read-out of agar diffusion tests.

A further series concerns E. faecium. Description: Agar well diffusion assay of cesin analogs. The class given is cell-based, Enterococcus faecium. The settings on record: triplicate, Fig. 5B, S1. On the procedure:
as §1

A short description of series [1]: Thermal stability (residual antimicrobial activity). The class given is physicochemical. On the procedure:
as §1

A further series has as its system sheep erythrocytes. Description: Hemolytic activity assay. The class given is cell-based. The conditions noted are these: sheep erythrocytes 2% (vol/vol) in PBS, up to 64 µg/mL, 37°C for 40 min, absorbance 420 nm relative to Triton X-100, triplicate; Fig. 9. On the procedure: The hemolytic activity of cesin and nisin was determined as previously described ([65]). Briefly, fresh sheep blood (Sigma-Aldrich) was washed with 0.1 M PBS (pH 7.4; Sigma-Aldrich) three times to remove plasma (500 × g for 5 min), and then the erythrocytes were collected and diluted 1:50 in PBS. The lantibiotics were then added at final concentrations of 64, 32, 16, 8, 4, 2, and 0 µg/mL in PBS to wells containing 2% (vol/vol) washed erythrocytes. The cells were incubated at 37°C for 40 min, then centrifuged for 5 min at 3,100 g. The supernatants were transferred to a 96-well plate, and the absorbance was measured at a wavelength of 420 nm with a Synergy HT microplate reader (BioTek, Lucerne, Switzerland). The absorbance relative to the positive control, which was treated with 0.1% Triton X-100, was defined as the percentage of hemolysis. The analysis was carried out in triplicate.

Series [2] relates to nisin resistance protein (NSR). The conditions noted are these: 30 µL 0.1 mg/mL peptide, agar well, L. lactis NZ9000 (pNSR) vs L. lactis NZ9000 (pEmpty); three biological replicates; Fig. 8A.
Series [3] concerns Lactococcus lactis MG1363.
The test system of series [4] is Listeria monocytogenes LMG10470.
In series [5] the test system is Listeria monocytogenes TT82E.
Series [6] relates to Listeria monocytogenes LK132.
Series [7] concerns Staphylococcus aureus LMG10147.
Series [8] deals with Staphylococcus aureus LMG15975 (MRSA).
Series [9] concerns Enterococcus faecium LMG11423.
Series [10] relates to Enterococcus faecium LMG16003 (VRE).
For series [11], the system named is Enterococcus faecalis LMG16216 (VRE).
Another series deals with proteinase K (Parengyodontium album, UniProt P06873). Nature of the series: Stability against proteinase K (residual antimicrobial activity). The settings on record: 1 mg/mL proteolytic enzyme (pH 7.2), relative antimicrobial activity against L. lactis MG1363, agar well; three biological replicates; Fig. 8B.
proteinase K, sequence (P06873 106-384): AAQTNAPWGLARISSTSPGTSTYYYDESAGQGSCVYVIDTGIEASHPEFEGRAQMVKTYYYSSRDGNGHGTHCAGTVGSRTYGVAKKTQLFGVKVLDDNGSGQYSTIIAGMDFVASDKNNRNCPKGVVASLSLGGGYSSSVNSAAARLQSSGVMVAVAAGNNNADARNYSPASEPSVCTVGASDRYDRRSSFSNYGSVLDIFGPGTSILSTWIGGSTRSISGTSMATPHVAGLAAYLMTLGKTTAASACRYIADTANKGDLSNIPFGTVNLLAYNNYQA

On to “ITSWSLCTAGCITGRIMGCNKTATCHCSIHVSK (also: bicyclic or more (positions not given here)) [cesin NK, cesin-nisin(23–34) hybrid]”, for which the “antimicrobial activity compared to cesin” value in the series with L. lactis MG1363 and with E. faecium was “significant loss of antimicrobial activity” throughout.

For `C=C(NC(=O)[C@@H](NC(=O)[C@H](Cc1c[nH]cn1)NC(=O)[C@@H](NC(=O)[C@H](CO)NC(=O)[C@@H]1CSC(C)C2NC(=O)[C@H](C)NC(=O)C(NC(=O)[C@H](CCCCN)NC(=O)[C@H](CCSC)NC(=O)[C@H](CC(N)=O)NC(=O)[C@@H]3CSC(C)C(NC(=O)[C@H](CCCCN)NC(=O)[C@@H]4CSC(C)C(NC(=O)[C@@H]5CSCC(NC(=O)C(=CC)NC(=O)[C@@H](N)[C@@H](C)CC)C(=O)N[C@@H]([C@@H](C)CC)C(=O)NC(=C)C(=O)N[C@@H](CC(C)C)C(=O)N5)C(=O)N5CCC[C@H]5C(=O)NCC(=O)N4)C(=O)NCC(=O)N[C@@H](C)C(=O)N[C@@H](CC(C)C)C(=O)N[C@@H](CCSC)C(=O)NCC(=O)N3)C(C)SC[C@H](NC2=O)C(=O)N[C@@H](CC(N)=O)C(=O)N1)[C@@H](C)CC)C(C)C)C(=O)N[C@@H](CCCCN)C(=O)O` (stereo partly shown) [Nisin], in series [1] (incubated at 22°C, 55°C, 75°C, 95°C, read-out antimicrobial activity against L. lactis MG1363 (agar well), three biological replicates, Fig. 7A, B), the “thermal stability, time stable” value is reported as “stable for up to 4 h”. Also, the hemolysis entry with sheep erythrocytes is “comparable to that of nisin”. The “resistance to the cleavage action of NSR” value in [2] is on record as “inactivated”.

The MIC is the smallest concentration in the dilution series that meets the test's criterion for growth inhibition. Low readings indicate inhibition by little substance, high ones a need for much substance. As for `C=C1NC(=O)[C@H](Cc2c[nH]c3ccccc23)NC(=O)C(NC(=O)C(=CC)NC(=O)[C@@H](N)[C@@H](C)CC)CSC[C@@H](C(=O)NC2C(=O)N[C@@H](C)C(=O)NCC(=O)N[C@H](C(=O)N[C@H](C(=O)NC3C(=O)NCC(=O)N[C@@H](CCCNC(=N)N)C(=O)N[C@@H]([C@@H](C)CC)C(=O)N[C@@H](CCSC)C(=O)NCC(=O)N[C@H](C(=O)N[C@@H](CC(N)=O)C(=O)N[C@@H](CCCCN)C(=O)O)CSC3C)[C@@H](C)CC)CSC2C)NC(=O)[C@H](CC(C)C)NC1=O` (stereo partly shown) [Cesin], the “thermal stability, time stable” value in series [1] was “stable for up to 4 h”. Also, the MIC in series [3] turned out to be 0.08 µg/mL (≈ 0.0376 µM); in [4], 2.56 µg/mL (≈ 1.2 µM); in [5], 5.13 µg/mL (≈ 2.41 µM); in [6] it was 10.25 µg/mL (≈ 4.82 µM); with Bacillus cereus CH-85, 20.50 µg/mL (≈ 9.64 µM); in series [7], 5.13 µg/mL (≈ 2.41 µM). The MIC is 5.13 µg/mL (≈ 2.41 µM) in series [8], 5.13 µg/mL (≈ 2.41 µM) in series [9], 10.25 µg/mL (≈ 4.82 µM) in series [10] and 5.13 µg/mL (≈ 2.41 µM) in series [11]. Moreover, the “resistance to the cleavage action of NSR” value in series [2] is on record as “fully resistant”. Besides, at proteinase K, the “stability against proteinase K” value was “more resistant to proteinase K”.

In the case of “ITSWSLCTAGCITGRIMGCNMKTATCHCSIHVSK (also: bicyclic or more (positions not given here)) [cesin NMK, cesin(1–20)-nisin(21–34) hybrid]”, in the series with L. lactis MG1363 (Fig. 5B (L. lactis MG1363 and E. faecium, sentence names no strain)), the “antimicrobial activity compared to cesin NK” value is “significantly higher antimicrobial activity”. The “antimicrobial activity compared to cesin” value in the series on L. lactis MG1363 and with E. faecium was “significant loss of antimicrobial activity” each time.

Consider `C=C1NC(=O)[C@H]([C@@H](C)CC)NC(=O)C(NC(=O)C(=CC)NC(=O)[C@@H](N)[C@@H](C)CC)CSC[C@@H](C(=O)NC2C(=O)N3CCC[C@H]3C(=O)NCC(=O)N[C@H](C(=O)N[C@@H](CCCCN)C(=O)NC3C(=O)NCC(=O)N[C@@H](C)C(=O)N[C@@H](CC(C)C)C(=O)N[C@@H](CCSC)C(=O)NCC(=O)N[C@H](C(=O)N[C@@H](CC(N)=O)C(=O)N[C@@H](CCSC)C(=O)N[C@@H](CCCCN)C(=O)O)CSC3C)CSC2C)NC(=O)[C@H](CC(C)C)NC1=O` (stereo partly shown) [Nisin(1–22), reference compound], for which the MIC in series [3] is 1.28 µg/mL (≈ 0.598 µM); in [4], 41.00 µg/mL (≈ 19.2 µM); in series [5], 10.25 µg/mL (≈ 4.79 µM); in series [6], 41.00 µg/mL (≈ 19.2 µM); against Bacillus cereus CH-85, over 41.00 µg/mL; in series [7], 20.50 µg/mL (≈ 9.58 µM). The MIC in series [8] was 20.50 µg/mL (≈ 9.58 µM); in [9], 41.00 µg/mL (≈ 19.2 µM); in [10], over 41.00 µg/mL; in series [11], over 41.00 µg/mL.

These data come from publication PMC10581189, “Cesin, a short natural variant of nisin, displays potent antimicrobial activity against major pathogens despite lacking two C-terminal macrocycles” (Microbiology Spectrum, 2023).
